Measured values from patent US20080063703A1, “Active Drug Delivery in the Gastrointestinal Tract” (priority 2004, published 2008).
Like-named read-outs stand apart in the source and are kept apart here. Blank lines part the entries; values can stand above or below the compound they belong to.

Key:
rat intestine = conditions: all regions of the rat intestine; cited from earlier work
mouse ileum = conditions: addition of NO donors to mouse ileum; cited from earlier work
rat jejunum = assay: In vitro macromolecule permeation of rat jejunum sections with/without electrical stimulation and L-NAME (FIG. 37); format: in vitro ADME
Protocol: Reference is now made to FIG. 37, which is a graph showing in vitro measurements of macromolecule permeation, measured in accordance with an embodiment of the present invention. Several sections of rat jejunum were prepared, and the permeation of the sections to Leuprolide and Octreotide peptides was measured with and without electrical stimulation, and with and without application of 1 mM N^G-Nitro-L-Arginine methyl ester (L-NAME), a non-specific nitric oxide (NO) synthase (NOS) inhibitor. The electrical stimulation included the following parameters: 18 Hz, 1 ms pulses, and 5 mA (corresponding to a voltage of about 2 V).

[1] = system: upper jejunum tissue segments; assay: Octreotide permeation via rat upper jejunum tissue segment in diffusion chamber, with or without LITV pulses (FIG. 24); format: in vitro ADME, Wistar rat; conditions: LITV pulses 12 Hz, 1 millisecond, 3 mA vs control without stimulation; 1 mg/ml octreotide acetate, 90-minute period
Protocol: Reference is now made to FIG. 24, which is a graph showing in vitro experimental results measured in accordance with an embodiment of the present invention. A 300 g Wistar rat was anaesthetized using Ketamine (100 mg/kg) and Xylazine (10 mg/kg). Two 3 cm-long sections of the upper jejunum were removed and opened along the lumen so that two rectangular pieces of tissue were available. The serosal and muscular layers were removed using a microscope cover glass. The intestinal tissue segments were placed on slides and inserted into diffusion chambers similar to experimental diffusion chamber 500, described hereinbelow with reference to FIG. 26. […] The tissue segments on the slides completely covered the windows between the donor and acceptor cells. The cells were filled with 15 ml of Hank's Balanced Salt Solution (HBSS) (pH 7.4). The donor cells were then divided into two separate sections with a dividing board slightly touching the tissue so that fluid passage between the two parts of each donor cell was slow (if not impossible). […]
In one of the diffusion chambers (which served as a control), permeation of octreotide via the tissue segment was measured without the application of electrical stimulation. […] The samples were analyzed by HPLC-UV 205 nm spectroscopy (Hewlett-Packard 1100, acetonitril: phosphate buffer (pH 7.4) (40:60), C18 column) for their content of octreotide.

jejunal tissue = assay: Octreotide permeation via jejunal tissue in diffusion chamber 500 with LITV pulses (FIGS. 27-36); format: in vitro ADME, Wistar rat; conditions: for permeation efficiency, effect of pulse cycle: 1 millisecond (FIG. 31); for octreotide permeation vs control group: 3 mA (FIG. 29); for permeation efficiency, effect of electrode material: 1 millisecond (FIG. 34)
Protocol: (§1) Reference is now made to FIG. 26, which is a schematic cross-sectional illustration of an experimental diffusion chamber 500, and FIGS. 27-36, which are graphs showing in vitro experimental results generated in accordance with respective embodiments of the present invention. A number of 300 g Wistar rats were anaesthetized using Ketamine (100 mg/kg) and Xylazine (10 mg/kg). Two 3 cm-long sections 510 of the intestine were removed from each rat and opened along the mesenterial line so that two rectangular pieces of tissue were available from each rat (a single tissue section 510 is shown in FIG. 26). For the experiments described hereinbelow with reference to FIGS. 27-35, the intestinal sections were taken from the upper jejunum, while for the experiment described hereinbelow with reference to FIG. 36, the intestinal sections were taken from the upper jejunum, proximal ileum, and distal ileum. The serosal and muscular layers of the intestinal sections were removed using a microscope cover glass. Each of the intestinal tissue segments was placed on a slide and inserted into diffusion chamber 500.
Diffusion chamber 500 is shaped so as to define a donor cell 520 and an acceptor cell 522, connected by a 28 mm×8 mm window 524. Tissue segment 510 on the slide completely covered window 524. Tissue segment 510 was placed so as to completely cover window 524, thereby separating donor cell 520 and acceptor cell 522. Tissue segment 510 was oriented such that the mucosal side thereof faced donor cell 520, and the serosal side thereof faced acceptor cell 522. Donor cell 520 was filled with 15 ml of Hank's Balanced Salt Solution (HBSS) adjusted to a pH of 7.4 (in mM: 136.9 NaCl, 5.4 KCl, 0.5 MgCl2, 0.4 MgSO4, 4.5 KH2PO4, 0.35 Na2HPO4, 1.0 CaCl2, 4.2 NaHCO3, 5.5 D-Glucose). Acceptor cell 522 was filled with D-Glucose-supplemented Phosphate Buffered Saline (PBS) adjusted to a pH of 7.4 (in mM: 136.9 NaCl, 2.7 KCl, 0.5 MgCl2, 1.5 KH2PO4, 8.1 Na2HPO4, 0.7 CaCl2, 5.5 D-Glucose).
After tissue segment 510 was placed over window 524, the donor cell was divided into two separate compartments 526a and 526b by an electrically-insulating divider 528 positioned to slightly touch tissue segment 510 so that fluid passage between compartments 526a and 526b was slow (if not impossible). (Donor cell 520 was not divided into compartments 526a and 526b in the experiment described hereinbelow with reference to FIG. 33.) The solution was maintained at 37° C. and gassed with 95% O2/5% CO2, supplied via 1 mm ID tubes placed at the bottom of each cell (tubes not shown in FIG. 26).
A single square electrode 530 was placed in each of compartments 526a and 526b of donor cell 520, such that an electrode surface 532 of each electrode was parallel to the surface of tissue segment 510, at a 0.5 mm distance from tissue segment 510 (except for the experiment described hereinbelow with reference to FIG. 32). Electrodes 530 comprised stainless steel (SS316L, 6 mm×6 min) (except for the experiment described hereinbelow with reference to FIG. 34). The distance between the centers of electrode surfaces 532 was 10 mm. After tissue segment 510 was in position over window 524 for 30 minutes, the HBSS in donor cell 520 was replaced with 1 mg/ml octreotide acetate (Sandostatin) containing HBSS.
In each of the experiments described hereinbelow with reference to FIGS. 27-36, beginning upon replacement of the HBSS in donor cell 520 with octreotide, a train of LITV pulses was applied through electrodes 530, and the permeation of octreotide from donor cell 520 to acceptor cell 522 via tissue segment 510 was measured. This train of monophasic rectangular pulses was generated using a Thurlby Thandar Instruments TGP110 pulse generator. The voltage output of the pulse generator was adjusted so that a 3 mA current flowed through the electrodes. An EZ Digital Co. DM330 Digital Multimeter, connected serially to the electrodes, was used to measure current. […]

proximal ileum tissue = assay: Octreotide permeation via proximal ileum tissue in diffusion chamber 500 with LITV pulses (FIG. 36); format: in vitro ADME, Wistar rat; conditions: 18 Hz, 3 mA, 1 millisecond vs control, at 7 minutes (FIG. 36)
Protocol: as §1, with “Each of the intestinal tissue segments was placed on a slide and inserted into diffusion chamber 500.” left out
(§2) In each of the experiments described hereinbelow with reference to FIGS. 27-36, beginning upon replacement of the HBSS in donor cell 520 with octreotide, a train of LITV pulses was applied through electrodes 530, and the permeation of octreotide from donor cell 520 to acceptor cell 522 via tissue segment 510 was measured. […]

distal ileum tissue = assay: Octreotide permeation via distal ileum tissue in diffusion chamber 500 with LITV pulses (FIG. 36); format: in vitro ADME, Wistar rat; conditions: 18 Hz, 3 mA, 1 millisecond vs control, at 7 minutes (FIG. 36)
Protocol: as §1, with “Each of the intestinal tissue segments was placed on a slide and inserted into diffusion chamber 500.” left out
as §2

[2] = system: proabsorptive effect of NO; conditions: addition of NOS inhibitors; cited from earlier work
[3] = system: electrically-induced NO synthesis and release; conditions: NO synthase inhibitor added; cited from earlier work

SMILES: CC(C)N(CCCN)/[N+]([O-])=N/O [NOC5]
absorption of macromolecules (rat intestine): improve absorption of macromolecules

SMILES: CCNCCN(CC)/[N+]([O-])=N/O [NOC12]
absorption of macromolecules (rat intestine): improve absorption of macromolecules

SMILES: CNCCCN(C)/[N+]([O-])=N/O [NOC7]
absorption of macromolecules (rat intestine): improve absorption of macromolecules

SMILES: CC(=O)N[C@H](C(=O)O)C(C)(C)SN=O [SNAP, S-nitroso-acetyl-penicillamine]
transepithelial electrical resistance (mouse ileum): decrease in transepithelial electrical resistance

penetration of the peptides (rat jejunum): about 0.6 ug/ml
SMILES: CCNC(=O)[C@@H]1CCCN1C(=O)[C@H](CCCNC(=N)N)NC(=O)[C@H](CC(C)C)NC(=O)[C@@H](CC(C)C)NC(=O)[C@H](Cc1ccc(O)cc1)NC(=O)[C@H](CO)NC(=O)[C@H](Cc1c[nH]c2ccccc12)NC(=O)[C@H](Cc1c[nH]cn1)NC(=O)[C@@H]1CCC(=O)N1 [Leuprolide]

SMILES: C[C@@H](O)[C@@H]1NC(=O)[C@H](CCCCN)NC(=O)[C@@H](Cc2c[nH]c3ccccc23)NC(=O)[C@H](Cc2ccccc2)NC(=O)[C@@H](NC(=O)[C@H](N)Cc2ccccc2)CSSC[C@@H](C(=O)N[C@H](CO)[C@@H](C)O)NC1=O [octreotide, octreotide acetate]
octreotide permeation into acceptor cell [1]: substantially greater increase in octreotide permeation | magnitude of permeation efficiency, effect of electrode distance from jejunal tissue (jejunal tissue; 0.5 mm vs 3 mm, 18 Hz, 3 mA, 1 millisecond, at 15 minutes (FIG. 32)): greater at 0.5 mm than at 3 mm | permeation efficiency, effect of pulse cycle (jejunal tissue; 1 pulse per cycle, 18 Hz, 3 mA): greatest permeation efficiency | enhancement ratio, effect of pulse frequency (jejunal tissue; 18 Hz among 5-60 Hz tested, 1 millisecond, 3 mA, at 30 minutes (FIG. 28)): greatest enhancement ratio | permeation efficiency, effect of cessation of pulse application (jejunal tissue; continuous application vs cessation after 10 minutes, 18 Hz, 3 mA, 1 millisecond (FIG. 35)): substantially greater permeation efficiency | permeation efficiency, effect of electrode insulation (jejunal tissue; electrodes not insulated from each other (without divider 528), 18 Hz, 3 mA, 1 millisecond (FIG. 33)): did not increase permeation efficiency | permeation efficiency, effect of pulse cycle (jejunal tissue; increasing number of pulses per cycle (2, 3), 18 Hz, 3 mA): the permeation efficiency decreased | permeation efficiency in different regions of the intestine (jejunal tissue; jejunal tissue, 18 Hz, 3 mA, 1 millisecond vs control, at 7 minutes (FIG. 36)): greatest effect of pulse application | enhancement ratio, effect of pulse duration (jejunal tissue; pulse duration 1 millisecond among 0.2-3 milliseconds tested, 18 Hz, 3 mA, at 15 minutes (FIG. 30)): greatest enhancement ratio | octreotide permeation (permeation efficiency) (jejunal tissue; pulses 1 millisecond, 18 Hz, 3 mA vs non-stimulated control group (FIG. 27)): substantially enhanced octreotide permeation | octreotide permeation vs control group (jejunal tissue; pulses at 5 Hz, 1 millisecond): did not yield a higher octreotide permeation | octreotide permeation vs control group (jejunal tissue; pulses at 60 Hz, 1 millisecond): did not yield a higher octreotide permeation | permeation efficiency, effect of electrode material (jejunal tissue; silver chloride electrodes, 18 Hz, 3 mA): did not increase permeation efficiency | permeation efficiency, effect of electrode material (jejunal tissue; stainless steel (SS316L) electrodes, 18 Hz, 3 mA): substantially increased permeation efficiency | permeation efficiency, effect of electrode material (jejunal tissue; titanium nitride electrodes, 18 Hz, 3 mA): did not increase permeation efficiency | permeation efficiency in different regions of the intestine (proximal ileum tissue): increased permeation efficiency | permeation efficiency in different regions of the intestine (distal ileum tissue): positive but less pronounced effect | permeation of the peptides (rat jejunum; NOS-inhibited (1 mM L-NAME) non-stimulation group, after 45 minutes): about 0.45 ug/ml | permeation of the peptides (rat jejunum; NOS-inhibited (1 mM L-NAME) stimulation group (18 Hz, 1 ms, 5 mA), after 45 minutes): about 0.45 ug/ml | permeation of the peptides (rat jejunum; non-NOS-inhibited electrical stimulation group (18 Hz, 1 ms, 5 mA), after 45 minutes): about 1.45 ug/ml | penetration of the peptides (rat jejunum; non-stimulation, non-NOS-inhibited control group, after 45 minutes): about 0.6 ug/ml

SMILES: COC(=O)[C@@H](N)CCCNC(=N)N[N+](=O)[O-] [L-NAME, N^G-Nitro-L-Arginine methyl ester]
effect of NOS inhibition on peptide permeation vs non-NOS-inhibited groups (rat jejunum; 1 mM L-NAME, with and without stimulation): substantially less | proabsorptive effect of NO [2]: significantly reduced

SMILES: CNC(=N)NCCC[C@H](N)C(=O)O [L-NMA, N^G-methyl-L-arginine]
proabsorptive effect of NO [2]: significantly reduced

SMILES: N=C(NCCC[C@H](N)C(=O)O)N[N+](=O)[O-] [L-NNA, N^G-nitro-L-arginine]
proabsorptive effect of NO [2]: significantly reduced | electrically-induced NO synthesis and release [3]: almost entirely prevented
